According to the NIST ThermoML archive (doi:10.1016/j.fluid.2007.03.030):

Tests used:
[1] = Liquid; for mass density: 298.15 K, 101.33 kPa; for vapor or sublimation pressure: Ebulliometric method (Recirculating still)
[2] = refractive index (Na D-line) (dimensionless); conditions: 298.15 K; 101.33 kPa; Liquid; Standard Abbe refractometry

CCOCCO [2-ethoxyethan-1-ol]
Conditions	mass density [kg/m3]	refractive index
[1]	925.38	–
[2]	–	1.4062

[1]
Conditions	vapor or sublimation pressure [kPa]
345.63 K	9.97
349.72 K	11.98
353.3 K	13.98
356.42 K	15.98
359.27 K	17.98
363.08 K	20.96
365.34 K	22.97
367.46 K	24.98
370.33 K	27.95
373 K	30.94
375.49 K	33.97
378.51 K	37.93
381.26 K	41.98
383.78 K	45.88
386.12 K	49.91
388.87 K	54.89
391.39 K	59.83
393.83 K	64.82
396.01 K	69.65
398.1 K	74.57
400.12 K	79.47
402.11 K	84.74
403.97 K	89.84
405.76 K	94.91
407.95 K	101.3

CCCOCCC [dipropyl ether]
Conditions	mass density [kg/m3]	refractive index
[1]	741.81	–
[2]	–	1.3784

Conditions	vapor or sublimation pressure [kPa]
[1], 363.16 K	101.3

CCCO [propan-1-ol]
Conditions	mass density [kg/m3]	refractive index
[1]	799.62	–
[2]	–	1.3836

Conditions	vapor or sublimation pressure [kPa]
[1], 369.75 K	101.3
